# From patent publication US5215999A, “Quinoline derivative and antiulcer agent containing said quinoline derivative” (Otsuka Pharmaceutical Co., Ltd., priority 1990, dated 1993)
# Structures can show the parent of a compound that is named as a salt.
# Tests used:
# [1] = test system: stomach-acid secretion; assay: Stomach-acid secretion inhibitory action on rats (histamine-stimulated, perfused stomach); format: in vivo, Wistar-type male rats; details: Rattus norvegicus, iv; 0.3, 1, 3, 10 and 30 mg/kg; histamine dihydrochloride 1 mg/kg/hr; probit method
# Protocol: (a) Stomach-Acid Secretion Inhibitory Action on Rats
# After each of Wistar-type male rats was let abstain from food for 24 hours, the pylorus thereof was bound while the rat was paralyzed with urethane (1.5 g/kg s.c.), and a stomach perfusion cannula was inserted into the rat stomach. The rat stomach was perfused with a physiological salt solution through an oral catheter. The amount of stomach-acid secretion was measured by titrating the total acidity and pH of the perfusion solution. As an acid secretion stimulant, 1 mg/kg/hr of histamine dihydrochloride was continuously injected through the femoral vein to accelerate the acid secretion. Then, the effects of a variety of compounds were studied.
# Each of test compounds as dissolved in dimethylformamide was intravenously administered to the rat in each of dosages of 0.3, 1, 3, 10 and 30 mg/kg through […].
# There was calculated an inhibition percentage of acid secretion with respect to acid secretion before administration of each of the test compounds. An ED50 value was calculated from the inhibition percentage with respect to each dosage according to a probit method.
# [2] = target: T1, H^+ +K^+ ATPase (Sus scrofa, UniProt P19156); assay: H+ + K+ ATPase inhibitory action; format: biochemical; details: pig stomach enzyme, protein 10 μg; pH 7.4, 37° C., 30 minutes
# T1 construct: prepared from the stomach of a pig; from tissue; host or cells: pig stomach
# Protocol: (c) H^+ +K^+ ATPase Inhibitory Action
# H^+ +K^+ ATPase (adenosinetriphosphatase)(protein: 10 μg) prepared from the stomach of a pig was added to a pipes-Tris [2-amino-2-(hydroxymethyl)-1,3-propandiol] buffer (pipes-Tris buffer)(pH 8.1) containing 2 mM piperazine N,N'-bis(2-ethane sulfonic acid). The resultant reaction solution was allowed to stand at a room temperature. Each of the test compounds was dissolved in dimethyl formamide, which was added to the H^+ +K^+ ATPase buffer such that the final concentration was 1%. The resultant reaction solution was reacted at a room temperature for 30 minutes. In the same manner, another reaction solution was prepared. Respectively added to the reaction solutions were 1 ml of a 75 mM pipes-TRIS buffer (pH 7.4) (containing 4 mM MgCl2, 4 mM Na2 ATP and 20 mM KCl) and 1 ml of a 75 mM pipes-Tris buffer (pH7.4) (containing 4 mM MgCl2 and 4 mM Na2 ATP). Thus, two kinds of samples were prepared and reacted at 37° C. for 30 minutes. Added to each of the samples was 0.3 ml of 40% trichloroacetic acid, thus completing the reaction. After the samples were subjected to centrifugal separation (3,000 rpm) for 10 minutes. The supernatant liquids were taken to produce inorganic phosphoric acids, of which amounts were measured according to a Fiske and Subbarow method [J. Biol. Chem. vol. 86,375 (1925)]. The amount of the inorganic phosphoric acid obtained from the pipes-Tris buffer containing no 20 mM KCl was deducted from the amount of the inorganic phosphoric acid obtained from the pipes-Tris buffer containing 20 mM KCl. The difference expressed in terms of unit protein per unit time was defined as an enzyme active value. The inhibition value (%) of each dosage was obtained from the control value and the enzyme active value at each dosage. Based on the inhibition value thus obtained, IC50 (the dosage of each test compound which achieves inhibition of 50%) was obtained.
# T1 sequence (P19156 2-1034 limits assumed): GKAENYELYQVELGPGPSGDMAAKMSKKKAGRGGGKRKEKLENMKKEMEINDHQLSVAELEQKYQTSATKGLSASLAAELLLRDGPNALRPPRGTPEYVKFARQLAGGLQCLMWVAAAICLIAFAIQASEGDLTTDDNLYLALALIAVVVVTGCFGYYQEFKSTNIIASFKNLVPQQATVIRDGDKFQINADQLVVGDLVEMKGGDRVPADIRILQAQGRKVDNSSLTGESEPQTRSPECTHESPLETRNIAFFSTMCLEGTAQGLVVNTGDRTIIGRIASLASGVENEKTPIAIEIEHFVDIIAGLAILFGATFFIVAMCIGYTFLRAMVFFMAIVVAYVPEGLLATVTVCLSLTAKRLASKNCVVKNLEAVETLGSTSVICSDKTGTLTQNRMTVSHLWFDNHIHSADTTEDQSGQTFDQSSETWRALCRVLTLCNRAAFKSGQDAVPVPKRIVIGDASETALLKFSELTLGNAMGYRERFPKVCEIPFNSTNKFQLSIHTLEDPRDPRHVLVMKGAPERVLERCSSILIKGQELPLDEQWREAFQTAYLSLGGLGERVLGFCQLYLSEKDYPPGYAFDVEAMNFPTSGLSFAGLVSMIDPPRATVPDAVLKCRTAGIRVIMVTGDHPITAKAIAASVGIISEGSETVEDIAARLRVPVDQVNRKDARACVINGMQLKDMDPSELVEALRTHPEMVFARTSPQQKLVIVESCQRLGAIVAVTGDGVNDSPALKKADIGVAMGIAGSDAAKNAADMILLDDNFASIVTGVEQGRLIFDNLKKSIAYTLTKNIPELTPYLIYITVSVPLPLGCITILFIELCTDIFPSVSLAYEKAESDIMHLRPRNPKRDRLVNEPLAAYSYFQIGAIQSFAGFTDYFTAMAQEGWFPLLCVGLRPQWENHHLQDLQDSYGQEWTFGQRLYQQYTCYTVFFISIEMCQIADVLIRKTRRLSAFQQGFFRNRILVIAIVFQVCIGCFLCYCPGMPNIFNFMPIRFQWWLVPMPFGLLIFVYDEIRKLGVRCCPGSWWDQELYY
# T1 sequence (P18434 whole entry partner): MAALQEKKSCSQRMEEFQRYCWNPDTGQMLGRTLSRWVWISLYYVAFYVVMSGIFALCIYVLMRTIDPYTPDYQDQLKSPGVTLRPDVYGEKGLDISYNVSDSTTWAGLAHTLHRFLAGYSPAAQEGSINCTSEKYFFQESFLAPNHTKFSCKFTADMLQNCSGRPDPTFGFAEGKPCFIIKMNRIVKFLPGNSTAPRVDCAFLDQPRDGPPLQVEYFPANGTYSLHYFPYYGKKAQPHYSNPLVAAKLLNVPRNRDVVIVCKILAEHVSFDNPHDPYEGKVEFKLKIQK
IC50 [2] [nM],Structure (SMILES),ED50 [1] [mg/kg]
–,"C=CCNC(=O)c1cnc2c(OC)cccc2c1Nc1ccccc1C.Cl [Test Compound 1, N-2-propenyl-8-methoxy-4-[(2-methylphenyl)amino]quinoline-3-carboxamide hydrochloride]",6.72
2200,"C=CCNC(=O)c1cnc2c(OC)cccc2c1Nc1ccccc1CC [Test Compound 2, N-2-propenyl-4-[(2-ethylphenyl)amino]-8-methoxyquinoline-3-carboxamide hydrochloride]",–
4900,"C=CCNC(=O)c1cnc2c(OC)cccc2c1Nc1ccccc1C(C)C [Test Compound 3, N-2-propenyl-4-[(2-isopropylphenyl)amino]-8-methoxyquinoline-3-carboxamide hydrochloride]",–
1600,"C=CCNC(=O)c1cnc2c(OC)cccc2c1Nc1ccccc1SCCC [Test Compound 5, N-2-propenyl-8-methoxy-4-[(2-propylthiophenyl)amino]quinoline-3-carboxamide hydrochloride]",–
